# Test results taken from PubChem BioAssay (NCI).
#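 The compound was tested at five concentrations on cells cultured in 96-well plates, with a 48-hour exposure period. The concentration for 50% growth inhibition is given as GI50. TGI marks complete inhibition of growth.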
# Experiments:
# Assay in all cases: NCI tumour cell line growth inhibition, 48 h
# SNB-75 CNS = tested on: SNB-75 CNS
# OVCAR-8 ovarian = tested on: OVCAR-8 ovarian
# M14 melanoma = tested on: M14 melanoma
# SK-MEL-2 melanoma = tested on: SK-MEL-2 melanoma
# NCI-H460 lung = tested on: NCI-H460 lung
# SW-620 colon = tested on: SW-620 colon
# TK-10 renal = tested on: TK-10 renal
# SNB-19 CNS = tested on: SNB-19 CNS
# IGROV1 ovarian = tested on: IGROV1 ovarian
# UACC-62 melanoma = tested on: UACC-62 melanoma
# OVCAR-4 ovarian = tested on: OVCAR-4 ovarian
# HL-60(TB) leukemia = tested on: HL-60(TB) leukemia
# MDA-N = tested on: MDA-N
# T-47D breast = tested on: T-47D breast
# PC-3 prostate = tested on: PC-3 prostate
# NCI/ADR-RES ovarian = tested on: NCI/ADR-RES ovarian
# MCF7 breast = tested on: MCF7 breast
# DU-145 prostate = tested on: DU-145 prostate
# HS 578T breast = tested on: HS 578T breast
SMILES,TGI (SNB-75 CNS) [µM],TGI (OVCAR-8 ovarian) [µM],TGI (M14 melanoma) [µM],TGI (SK-MEL-2 melanoma) [µM],TGI (NCI-H460 lung) [µM],TGI (SW-620 colon) [µM],TGI (TK-10 renal) [µM],TGI (SNB-19 CNS) [µM],TGI (IGROV1 ovarian) [µM],TGI (UACC-62 melanoma) [µM],TGI (OVCAR-4 ovarian) [µM],TGI (HL-60(TB) leukemia) [µM],TGI (MDA-N) [µM],TGI (T-47D breast) [µM],TGI (PC-3 prostate) [µM],TGI (NCI/ADR-RES ovarian) [µM],TGI (MCF7 breast) [µM],TGI (DU-145 prostate) [µM],TGI (HS 578T breast) [µM],GI50 (IGROV1 ovarian) [µM]
COC(=O)C(CC(C)=O)CS(=O)(=O)CC(=O)C(=O)Nc1cccc([N+](=O)[O-])c1 (centres undefined),> 100,> 100,> 100,> 100,> 100,> 100,> 100,> 100,> 100,> 100,> 100,–,–,–,–,–,–,–,–,–
CCC12CCCNC1c1c(n(C)c3ccccc13)C(C(=O)OC)C2 (centres undefined),–,> 275,–,259,> 275,> 275,> 275,> 275,> 275,> 275,–,> 275,–,–,–,–,–,–,–,–
NNC1=N/C(=C\c2ccco2)C(=O)N1,> 100,> 100,> 100,> 100,–,> 100,> 100,> 100,> 100,> 100,> 100,> 100,> 100,> 100,> 100,> 100,> 100,–,–,–
CCN1C(=O)/C(=C2\SC(c3ccccc3)(c3ccccc3)c3ccccc32)SC1=S,> 100,> 100,> 100,–,> 100,–,> 100,> 100,> 100,> 100,> 100,–,> 100,–,> 100,> 100,> 100,> 100,> 100,–
COc1ccc(N2C(=O)c3c(c4[nH]c5ccc(OC)cc5c4c4ccc(C(C)(C)C)cc34)C2=O)cc1,> 100,> 100,> 100,> 100,> 100,–,> 100,> 100,> 100,–,> 100,> 100,–,–,–,–,–,–,–,–
CC(=O)Nc1ccc(-c2nc3ccccc3s2)cc1C,> 100,> 100,> 100,> 100,> 100,> 100,> 100,> 100,> 100,> 100,> 100,> 100,–,> 100,> 100,> 100,> 100,55.6,> 100,–
O=C(Nc1nc(C23CC4CC(CC(C4)C2)C3)cs1)c1cc2cc(Cl)ccc2oc1=O,> 100,> 100,–,–,> 100,> 100,> 100,> 100,> 100,–,> 100,> 100,> 100,–,> 100,> 100,> 100,> 100,> 100,–
CCCC(N)C(=O)c1ccccc1 (centres undefined),> 100,> 100,> 100,> 100,> 100,> 100,> 100,> 100,> 100,> 100,> 100,> 100,–,–,–,–,–,–,–,–
Cc1ccc(C2N=C(N)NC3=C2CCOc2c3ccc3ccccc23)cc1 (centres undefined),> 78.6,> 70.5,> 55.9,> 100,> 100,> 100,> 80.3,> 100,> 100,57.5,> 83.7,19,–,> 65.3,> 75,> 60.5,> 51.5,> 85.4,67.7,44.6
Cc1cc(C)n2c(-c3ccccc3)c(C)cc2n1,59.8,> 100,> 100,> 100,> 100,> 100,> 100,> 100,> 100,> 100,> 100,50.4,–,–,–,–,–,–,–,–
CSc1cc(Br)ccc1-n1c(C(=O)c2ccccc2)c(SC)n(-c2ccccc2)c1=O,> 100,> 100,> 100,–,> 100,> 100,> 100,> 100,> 100,> 100,> 100,–,> 100,–,> 100,> 100,> 100,–,> 100,–
COC(=O)C1=CC2CC1C(S(=O)(=O)c1ccccc1)C2S(=O)(=O)c1ccccc1 (centres undefined),–,38.5,25.5,–,51.5,21,24.7,> 100,98.9,67.9,39.9,7.29,–,–,–,–,–,–,–,–
CC(Oc1ccc(OCC2CCCCC2)cc1)C(=O)NCCO (centres undefined),> 100,> 100,> 100,> 100,> 100,–,> 100,> 100,> 100,> 100,> 100,> 100,–,–,–,–,–,–,–,–
COc1cccc(CCNc2c(C#N)c3nc4ccccc4n3c3ccccc23)c1,> 58,> 100,> 100,> 100,> 100,> 100,> 100,> 86,> 100,> 100,> 100,> 100,–,> 52.6,> 100,–,> 100,> 41.1,> 27.2,–
C[C@H](NC(=O)n1c2ccccc2c2ccccc21)C(=O)O,–,> 100,–,> 100,> 100,> 100,> 100,> 100,> 100,> 100,–,> 100,–,–,–,–,–,–,–,–
Cc1[nH]n(C(=N)N)c(=O)c1CCO,> 100,3.17,> 100,> 100,> 100,> 100,> 100,> 100,> 100,> 100,> 100,> 100,> 100,–,> 100,8.93,> 100,> 100,> 100,–
Cc1cc2oc(-c3ccccc3)c(C)c(=O)c2c2c1OC(C)(C)S2,> 100,> 100,> 100,> 100,> 100,> 100,> 100,> 100,> 100,> 100,> 100,38.4,–,–,–,–,–,–,–,–
